Laboratory results taken from US20160033699A1, “POLARIZING PLATE” (NITTO DENKO CORPORATION, priority 2014, published 2016).
Read-outs that look alike come from different tables or passages of the source.

Assay: log P value (octanol/water partition coefficient)
Conditions: for log P: octanol/water partition coefficient
Description: The log P value may be measured in conformity with the shake flask method described in JIS Z 7260. In addition, the log P value may also be determined through calculation using, for example, ChemDraw Ultra manufactured by CambridgeSoft.

Row | Compound | log P | other results
1 | CSc1ccc(C(=O)C(C)(C)N2CCOCC2)cc1 [IRGACURE 907, 2-methyl-1-(4-methylthiophenyl)-2-morpholinopropan-1-one] |  | logP: 2.09
2 | C=CC(=O)OCCCCCCCCCCOC(=O)C=C [1,10-decanediol diacrylate] |  | logP (octanol/water): 4.1
3 | bisphenol A di(meth)acrylate | 5.46 | 
4 | CCc1cc(CC)c2sc3ccccc3c(=O)c2c1 [KAYACURE DETX-S, diethylthioxanthone] | 5.12 | 
5 | bisphenol A-propylene oxide (2 mole) adduct di(meth)acrylate | 6.10 | 
6 | tricyclodecanedimethanol diacrylate [LIGHT ACRYLATE DCP-A] | 3.05 | 
7 | neopentyl glycol hydroxypivalate-(meth)acrylic acid adduct | 3.35 | 
8 | bisphenol A-propylene oxide (4 mole) adduct di(meth)acrylate | 6.43 | 
9 | p-phenylphenol (meth)acrylate | 3.98 | 
